Reference: patent publication US3935309A, “Synergistic combinations of phosphonomycin and bacteriostatic agents” (Merck & Co., Inc., priority 1974, dated 1976)
Values joined by “and” are separate entries in the source; they are usually repeats but may differ in a detail not shown here. Equal entries are not always repeated.

Assays:
[1] = test system: Streptococcus pyogenes 3009; assay: Combined antibiotic therapy of experimental infection in mice (Example 5); type: in vivo, mice infected with Streptococcus pyogenes 3009; conditions: 6 LD50
Text: For example, using Escherichia coli 2017 as the infecting agent, sodium phosphonomycin was titrated alone and in the presence 5 and also in the presence of 0.5γtetracycline, while tetracycline was titrated alone and in the presence of 50γ, and also in the presence of 5γof sodium phosphonomycin. The two drugs were given by the subcutaneous route at separate sites on the ventral surface of the mouse. Such therapy was given only at the time of infection for the Escherichia coli and Pseudomonas aeruginosa tests but both at the time of infection and 6 hours later for all other tests. Infection was given intraperitoneally using broth suspensions of the test organism.

Streptococcus faecalis = assay: MIC by two-fold serial broth dilution, alone and in combination (Example 1); type: cell-based
Method: The MIC (minimum inhibitory concentration) of phosphonomycin and each of the other antibiotics by itself was determined before the combination synergy experiment was begun, as follows: 2 ml. of a double strength solution in sterile distilled water of the highest strength to be tested (usually 1000γ) was added to a tube of double strength nutrient broth (NB) and mixed thoroughly. Two-fold serial dilutions were then made by transferring 2 ml. to the next tube (1 × NB) and so on for approximately 12 tubes. The tubes were inoculated with one drop each of a 1:50 dilution of a culture adjusted to a Lumetron 60 reading in NB + 0.2% yeast extract so as to provide a concentration of cells of approximately 25,000/ml. The tubes were then incubated at 37°C. and examined for growth at 24, 48 and 72 hours.
In the combination experiment, the MIC value obtained as described above was used as approximately the midpoint of the range to be tested for each of the two antibiotics of the combination. In a manner similar to the above, two-fold dilutions of the first substance in the combination were made except that 1.8 ml. volumes were used and a 2.2 × strength solution of both the antibiotic and the NB were made. The second antibiotic of the combination was added to duplicate rows of serial dilutions of the first substance as follows: 0.2 ml. in NB of a [formula] and a [formula] respectively, of the second substance was added to each tube in a row of serial dilutions of the first antibiotic. The final concentration that resulted enabled the determination of the effect of both MIC/4 and MIC/8 of each substance in the presence of from approximately 32 MIC to [formula] of the other. Inocula were added as in the initial single MIC experiment.

C[C@@H]1O[C@@H]1P(=O)(O)O [Phosphonomycin, (-) (cis-1,2-epoxypropyl)phosphonic acid]
% ED50 ([1]; alone): 100%
% ED50, Combined % ([1]; alone): 100%
s.c. ED50 ([1]; alone, therapy at 0 and 6 hours, phosphonomycin as sodium salt): 1400 µg
% ED50 ([1]; tetracycline titrated, phosphonomycin constant 500): 64%
% ED50 ([1]; tetracycline titrated, phosphonomycin constant 1000): 71%
Phosphonomycin MIC in presence of ≤ MIC/4 of 2nd substance (Streptococcus faecalis; 2nd substance chlortetracycline): 48
Phosphonomycin MIC in presence of ≤ MIC/4 of 2nd substance (Streptococcus faecalis; 2nd substance erythromycin): 192
MIC (Streptococcus faecalis; Enterococcus faecalis, alone, read-out: Phosphonomycin MIC): 93.6 µg/mL
Phosphonomycin MIC (Streptococcus faecalis; alone, in µg/mL): 96 and 48
